Measurements: patent US20120029002A1, “BENZIMIDAZOLE AND PYRAZOLOPYRIDINE DERIVATIVES FOR TREATING AND/OR PREVENTING CARDIOVASCULAR DISEASES” (BAYER SCHERING PHARMA AKTIENGESELLSCHAFT, priority 2009, published 2012)

Tested on: aorta rings
Experiment: Vasorelaxant effect in vitro (phenylephrine-contracted rabbit aorta rings)
Format: cell-based, Rabbits
Conditions: Oryctolagus cuniculus; concentration necessary to reduce the height of the phenylephrine-induced contraction of rabbit aorta rings by 50%; organ bath, 37° C., 0.1% DMSO
Method: B-1. Vasorelaxant effect in vitro
Rabbits are stunned by a blow to the neck and exsanguinated. The aorta is removed, freed from adhering tissue and divided into rings of a width of 1.5 mm The rings are placed individually under an initial tension in 5 ml organ baths with Krebs-Henseleit solution which is at 37° C., is gassed with carbogen and has the following composition (in each case mM): NaCl: 119; KCl: 4.8; CaCl2×2 H2O: 1; MgSO4×7 H2O: 1.4; KH2PO4: 1.2; NaHCO3: 25; glucose: 10. The force of contraction is detected with Statham UC2 cells, amplified and digitized via A/D converters (DAS-1802 HC, Keithley Instruments, Munich) and recorded in parallel on chart recorders. Contractions are induced by cumulatively adding increasing concentrations of phenylephrine to the bath. After several control cycles, the substance to be investigated is added in each further run in increasing dosage, and the height of the contraction achieved is compared with the height of the contraction reached in the last preceding one. The concentration necessary to reduce the height of the control value by 50% is calculated from this (IC50 value). The standard application volume is […] the proportion of DMSO in the bath solution corresponds to 0.1%.

SMILES | IC50
Nc1nc(-n2nc(Sc3ccccc3F)c3ccccc32)nc(N)c1N [Example 3, 2-{3-[(2-Fluorophenyl)sulphanyl]-1H-indazol-1-yl}pyrimidine-4,5,6-triamine] | 2.15 µM
CC(C)OC(=O)Nc1c(N)nc(-n2nc(Sc3ccccc3F)c3ccccc32)nc1N [Example 12, Propan-2-yl (4,6-diamino-2-[3-[(2-fluorophenyl)sulphanyl]-1H-indazol-1-yl]pyrimidin-5-yl)-carbamate] | 4.93 µM
CC(C)OC(=O)Nc1c(N)nc(-n2nc(Oc3ccccc3F)c3ccccc32)nc1N [Example 19, Propan-2-yl{4,6-diamino-2-[3-(2-fluorophenoxy)-1H-indazol-1-yl]pyrimidin-5-yl}carbamate] | 5.64 µM
CC(C)OC(=O)Nc1c(N)nc(-n2nc(Sc3ccccc3F)c3ncccc32)nc1N [Example 9, Propan-2-yl (4,6-diamino-2-{3-[(2-fluorophenyl)sulphanyl]-1H-pyrazolo[4,3-b]pyridin-1-yl}pyrimidin-5-yl)carbamate] | 1.43 µM
